Legend:
[1] = rat, in vivo, iv, 5 mg/kg
Method: The rats (5 rats for each formulation) were injected intravenously through the tail vein at a dose of 5 mg/kg. The blood samples were collected from the tail vein at 1, 5, 15, 30 minutes and 1, 2, 4, 8, and 24 hours after the drug injection. The blood samples were immediately centrifuged, and the plasma was separated. The plasma samples were stored at −50° C. until analysis. Doxorubicin was analyzed by HPLC assay described in example 1.

[2] = tested on: MES-SA (doxorubicin-sensitive cell line); experiment: In vitro cytotoxicity, MTT assay; type: cell-based
Method: (§1) MTT assay is well established method for cytotoxicity test. When the cells are treated with MTT (methylthiazoletetrazolium), the MTT-formazan is produced from reduction of MTT-tetrazolium by enzymes present in living cells only (dead cells cannot reduce the MTT-tetrazolium to MTT-formazan). The fluorescence of the MTT-formazan is detected by a fluorescence reader and the optical density correlates with the number of cells.
(§2) The cytotoxic activity of each composition was evaluated in both human tumor cell lines at five ten-fold dilutions ranging from 0.01 to 100 μg/ml. […] The MTT-formazan produced from reduction of MTT-tetrazolium by enzymes present in the living cells was detected by a fluorescence reader. The optical density correlates with the number of cells. […] The MTT assay was performed essentially according to the method of Carmichael et al. (Cancer Research 47: 936 (1987)). Briefly, cells were harvested from an exponential phase culture growing in McCoy's 5A medium (Invitrogen Corp.) supplemented with 10% fetal bovine serum and 1% penicillin streptomycin, counted and plated in 96 well flat-bottomed microtiter plates (100 cell suspension, 5×10^4 cells/ml for each cell line). After a 24 h recovery to allow the cells to resume exponential growth, a culture medium (24 control wells per plate) or culture medium containing drug was added to the wells. Each drug concentration was plated in triplicate. […] Fluorescence was measured using an automatic microplate reader (SpectraMax 190, Molecular Devices) at a wavelength of 549 nm, and the number of viable cells was calculated from the optical density.

[3] = tested on: MES-SA/Dx-5 (doxorubicin-resistant cell line); experiment: In vitro cytotoxicity, MTT assay; type: cell-based
Method: as §1, §2

[4] = tested on: MES-SA (doxorubicin-sensitive cell line); experiment: Intracellular uptake, flow cytometry (FACS); type: cell-based, human; conditions: 1.0 μg/ml
Method: (§3) The flow cytometry study was performed with the FACStarPlus (Becton Dickinson) according to the method of Walker et al. (Experimental Cell Research 207: 142 (1993)). Briefly, cells (1.0×10^6) were incubated in McCoy's 5A medium (Invitrogen Corp.) supplemented with 10% fetal bovine serum and 1% penicillin streptomycin. After a 24-hour incubation period, the cells were treated with the drug composition at a dose of 1.0 μg/ml.

[5] = tested on: MES-SA/Dx-5 (doxorubicin-resistant cell line); experiment: Intracellular uptake, flow cytometry (FACS); type: cell-based, human; conditions: MES-SA/Dx-5, 1.0 μg/ml
Method: as §3

With `COc1cccc2c1C(=O)c1c(O)c3c(c(O)c1C2=O)C[C@@](O)(C(=O)CO)C[C@@H]3O[C@H]1C[C@H](N)[C@H](O)[C@H](C)O1.Cl` [Free-Dox, doxorubicin hydrochloride] the AUC [1] was 1300 ng·h/mL, the “MTT Assay IC50” value ([2]; time 24 hr) was 0.30 µg/mL and the “MTT Assay IC50” value ([2]; time 48 hr) was 0.087 µg/mL. The “MTT Assay IC50” value ([2]; time 72 hr) was 0.031 µg/mL, the “MTT Assay IC50” value ([3]; MES-SA/Dx-5, time 24 hr) was 54.0 µg/mL and the “MTT Assay IC50” value ([3]; MES-SA/Dx-5, time 48 hr) was 0.92 µg/mL. The “MTT Assay IC50” value ([3]; MES-SA/Dx-5, time 72 hr) was 0.75 µg/mL, the “Change of (Δ) Fluorescence Intensity” value ([4]; time 0 hr) was 0.0 and the “Number of cells(%) which absorbed the drug” value ([4]; time 0 hr) was 1.0%. The “Change of (Δ) Fluorescence Intensity” value ([4]; time 1 hr) was 7.6, the “Number of cells(%) which absorbed the drug” value ([4]; time 1 hr) was 4.0% and the “Change of (Δ) Fluorescence Intensity” value ([4]; time 4 hr) was 20.6. For the same compound, the “Number of cells(%) which absorbed the drug” value ([4]; time 4 hr) was 11.3%, the “Change of (Δ) Fluorescence Intensity” value ([4]; time 8 hr) was 40.6 and the “Number of cells(%) which absorbed the drug” value ([4]; time 8 hr) was 35.1%. For the same compound, the “Change of (Δ) Fluorescence Intensity” value ([5]; time 0 hr) was 0.0, the “Number of cells(%) which absorbed the drug” value ([5]; time 0 hr) was 1.0% and the “Change of (Δ) Fluorescence Intensity” value ([5]; time 1 hr) was 2.6. The “Number of cells(%) which absorbed the drug” value ([5]; time 1 hr) was 1.8%, the “Change of (Δ) Fluorescence Intensity” value ([5]; time 4 hr) was 7.1 and the “Number of cells(%) which absorbed the drug” value ([5]; time 4 hr) was 3.2%. For the same compound, the “Change of (Δ) Fluorescence Intensity” value ([5]; time 8 hr) was 9.2 and the “Number of cells(%) which absorbed the drug” value ([5]; time 8 hr) was 5.3%.

Reference: patent US20080260850A1, “Delivery System For Bioactive Agents on the Basis of a Polymeric Drug Carrier Comprising an Amphiphilic Block Polymer and a Polylacticacid Derivative” (SAMYANG CORPORATION, priority 2004, published 2008)
